Source: patent US20160271063A1, “STERILE S-ADENOSYL METHIONINE WITH A HIGH CONTENT OF ACTIVE ISOMER FOR INJECTABLE SOLUTIONS, AND PROCEDURE FOR OBTAINING IT” (GNOSIS S.P.A., priority 2013, published 2016)
Entries after “also recorded” stand apart in the source; their conditions may differ.

What was measured:
[1] = Particle size (laser particle-size distribution analysis); assay type: physicochemical; conditions: for Particle size D50μ: Test in Mobile Minor unit, IN/OUT temperature differs per test
[2] = Residual humidity of the powder; assay type: physicochemical; conditions: for Humidity %: Test in Mobile Minor unit, IN/OUT temperature differs per test
[3] = S,S isomer content by HPLC (area of active isomer to sum of both isomers); assay type: physicochemical; conditions: for S,S Stereoisomer %: Test in Mobile Minor unit, IN/OUT temperature differs per test; for enantiomeric excess of S,S isomer: sterile spray-dried product
Experimental: The S-adenosyl methionine of the invention preferably has a water content below 2% by weight and an active enantiomer content exceeding 75% of the total SAMe. The enantiomer content is determined by the percentage of the area of active isomer to the sum of the area of both isomers in the HPLC analysis.

[4] = BET surface area; assay type: physicochemical
[5] = Microscope appearance of particles; assay type: physicochemical
[6] = Stability of SAMe salt solutions; assay type: physicochemical
[7] = sterile spray-dried product
[8] = spray-dried, TIN 150° C., TOUT 95-96° C.
[9] = Table 2, comparison with the medicament on the market

Row | Structure (SMILES) | Particle size D50μ [1] | Humidity % [2] | S,S Stereoisomer % [3] | enantiomeric excess of S,S isomer [3] | endotoxin level [7] | further results
1 | C[S+](CC[C@H](N)C(=O)[O-])C[C@H]1O[C@@H](n2cnc3c(N)ncnc32)[C@H](O)[C@@H]1O.O=S(=O)(O)CCCCS(=O)(=O)O (single isomer, unassigned) [Example 7, SAMe 1,4-butanedisulphonate, reference compound] | 10 μ | 2.65% | 75.95% |  |  | enantiomeric ratio, S,S isomer [3]: 70%
2 | C[S+](CC[C@H](N)C(=O)[O-])C[C@H]1O[C@@H](n2cnc3c(N)ncnc32)[C@H](O)[C@@H]1O.O=S(=O)(O)CCCCS(=O)(=O)O (some centres unmarked) [Example 1, SAMe 1,4-butanedisulphonate] |  |  |  |  |  | particle size D50 [1, 8]: 10 microns; residual humidity [2, 8]: 1.50%; stereoisomeric ratio [3, 8]: 73.77%
3 | C[S+](CC[C@H](N)C(=O)[O-])C[C@H]1O[C@@H](n2cnc3c(N)ncnc32)[C@H](O)[C@@H]1O.O=S(=O)(O)CCCCS(=O)(=O)O (single isomer, unassigned) [Example 5, SAMe 1,4-butanedisulphonate] | 9 μ | 1.88% | 76.63% |  |  | Laser particle-size distribution analysis, 10% ([1]; 10%): 10% = 14.4 micron; Laser particle-size distribution analysis, 50% ([1]; 50%): 50% = 28.7 micron; Laser particle-size distribution analysis, 90% ([1]; 90%): 90% = 53.8 micron; Humidity [2, 9]: 1.20%; SS isomer (%) [3, 9]: 73.1%; BET surface area (m2/g) [4]: 0.3460 m2/g; Microscope [5]: Regular,; also recorded: spherical particles
4 | C[S+](CC[C@H](N)C(=O)[O-])C[C@H]1O[C@@H](n2cnc3c(N)ncnc32)[C@H](O)[C@@H]1O (some centres unmarked) [SAMe SD4, S-adenosyl methionine] |  |  |  |  |  | stability of the solution ([6]; at ambient temperature): break down rapidly; stability of the solution ([6]; stored at a cold temperature, unless microbial contamination is present): stable
5 | C[S+](CC[C@H](N)C(=O)[O-])C[C@H]1O[C@@H](n2cnc3c(N)ncnc32)[C@H](O)[C@@H]1O.O=S(=O)(O)CCCCS(=O)(=O)O (single isomer, unassigned) [Example 3, SAMe 1,4-butanedisulphonate] | 9 μ | 1.63% | 75.65% | exceeding 80% | less than 0.118 U/g | 
6 | C[S+](CC[C@H](N)C(=O)[O-])C[C@H]1O[C@@H](n2cnc3c(N)ncnc32)[C@H](O)[C@@H]1O.O=S(=O)(O)CCCCS(=O)(=O)O (single isomer, unassigned) [Example 4, SAMe 1,4-butanedisulphonate] | 8 μ | 1.63% | 72.60% | exceeding 80% | less than 0.118 U/g | 
